Laboratory results from US12240844B2 (Voronoi, Inc., priority 2019, dated 2025).

How the values were obtained:
[1] = target: T1, human GST-DYRK1A (full length) (Homo sapiens, UniProt Q13627); test: GST-DYRK1A enzyme inhibition, ADP-Glo kinase assay; assay type: biochemical; settings: read-out: DYRK1 IC50
T1 construct: purified human GST-DYRK1A (full length, Thermo scientifics) enzyme; GST; purchased Thermo scientifics
Experimental: (§1) In order to evaluate the inhibitory activity of the compounds according to the present invention on LRRK2, LRRK2 (G2019S), DYRK1, CLK1 and TTK kinases, the following experiment was performed.
(§2) Example compounds were reacted with the purified human GST-DYRK1A (full length, Thermo scientifics) enzyme to evaluate the enzyme inhibitory ability as follows. As the reaction buffer, the composition of 40 mM Tris-HCl pH 7.4, 20 mM MgCl2, 0.5 mg/mL BSA, and 50 uM DTT was used, and the reaction of all test materials was performed on the reaction buffer. During the test, the human GST-DYRK1A (full length, 10 ng) enzyme, the purified ATP (10 uM), and a specific substrate solution were reacted at 25° C. for 1 hour, and then the enzyme activity was identified using the in vitro ADP-Glo™ kinase assay (promega). Luminescence was measured by reacting the enzyme activity reaction solution, an ADP-Glo reaction solution and the enzyme potency detection solution in a ratio of 2:2:1. The degree of inhibition of enzyme activity according to the treatment concentrations of the respective compounds was calculated based on the fluorescence of the enzyme activity of a solvent control group that was not treated with the compound, where the concentration of each compound to inhibit enzyme activity inhibition by 50% was determined as an IC50 (nM) value. The IC50 of each compound was determined in triplicate data sets and obtained using Prism (version 7.01, GraphPad) software.
(§3) In the table below, the following designations were used for the evaluation of enzyme inhibitory ability.

[2] = target: T2, human GST-CLK1 (129-end) (Homo sapiens, UniProt P49759); test: GST-CLK1 enzyme inhibition, ADP-Glo kinase assay; assay type: biochemical; settings: ATP 10 uM
T2 construct: purified human GST-CLK1 (129-end, Signalchem) enzyme; GST; purchased Signalchem
T2 sequence (P49759 129-484 limits assumed): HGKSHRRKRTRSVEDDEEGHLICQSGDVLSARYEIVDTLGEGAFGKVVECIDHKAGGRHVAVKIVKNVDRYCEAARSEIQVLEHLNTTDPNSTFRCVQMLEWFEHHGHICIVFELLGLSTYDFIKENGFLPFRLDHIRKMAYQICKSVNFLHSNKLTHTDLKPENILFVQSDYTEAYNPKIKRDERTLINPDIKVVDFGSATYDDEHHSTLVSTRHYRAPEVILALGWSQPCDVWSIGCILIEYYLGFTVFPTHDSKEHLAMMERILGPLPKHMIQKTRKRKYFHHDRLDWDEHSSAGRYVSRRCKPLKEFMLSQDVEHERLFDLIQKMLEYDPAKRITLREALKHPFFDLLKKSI
Experimental: as §1
as §2, with “GST-CLK1 (129-end, Signalchem)” for “GST-DYRK1A (full length, Thermo scientifics)”, “GST-CLK1 (129-end, 3” for “GST-DYRK1A (full length, 10”
as §3

Structure (SMILES) | IC50 [1] [nM] | IC50 [2] [nM]
COc1cc(S(=O)(=O)N2CCC(N3CCOCC3)CC2)ccc1Nc1cc(NC2CCCCC2)c2c(Cl)c[nH]c2n1 [Example 77, 3-chloro-N^4-cyclohexyl-N^6-(2-methoxy-4-((morpholinopiperidin-1-yl)sulfonyl)phenyl)-1H-pyrrolo[2,3-b]pyridine-4,6-diamine] | 301 to 1000 | 301 to 1000
CC(C)Nc1cc(Nc2ccc(C(=O)N3CCOCC3)c3c2OCCO3)nc2[nH]cc(C(F)(F)F)c12 [Example 168, (8-((4-(isopropylamino)-3-(trifluoromethyl)-1H-pyrrolo[2,3-b]pyridin-6-yl)amino)-2,3-dihydrobenzo [b] [1,4]dioxin-5-yl)(morpholino) methanone] | 301 to 1000 | < 100
COCCNc1cc(Nc2ccc(S(=O)(=O)N3CCC(N4CCOCC4)CC3)cc2OC)nc2[nH]cc(Cl)c12 [Example 78, 3-chloro-N^6-(2-methoxy-4-((morpholinopiperidin-1-yl)sulfonyl)phenyl)-N^4-(2-methoxyethyl)-1H-pyrrolo[2,3-b]pyridine-4,6-diamine] | 301 to 1000 | 301 to 1000
COCCNc1cc(Nc2ccc(S(C)(=O)=O)cc2OC)nc2[nH]cc(Cl)c12 [Example 87, 3-chloro-N^6-(2-methoxy-4-(methylsulfonyl)phenyl)-N^4-(2-methoxyethyl)-1H-pyrrolo[2,3-b]pyridine-4,6-diamine] | 301 to 1000 | 301 to 1000
CCNc1cc(Nc2ccc(C(=O)N3CCN(C4COC4)CC3)c3c2OCCO3)nc2[nH]cc(C#N)c12 [Example 35, 4-(ethylamino)-6-((8-(4-(oxetan-3-yl)piperazine-1-carbonyl)-2,3-dihydrobenzo[b] [1,4]dioxin-5-yl)amino)-1H-pyrrolo[2,3-b]pyridine-3-carbonitrile] | 101 to 300 | 101 to 300
O=C(c1ccc(Nc2cc(NC3CCCCC3)c3c(Cl)c[nH]c3n2)c2c1OCCO2)N1CCOCC1 [Example 61, (8-((3-chloro-4-(cyclohexylamino)-1H-pyrrolo[2,3-b]pyridin-6-yl)amino)-2,3-dihydrobenzo[b] [1,4]dioxin-5-yl)(morpholino) methanone] | 301 to 1000 | 301 to 1000
CCNc1cc(Nc2ccc(C(=O)N3CCOCC3)c3c2OCO3)nc2[nH]cc(C#N)c12 [Example 33] | 301 to 1000 | 101 to 300
O=C(c1ccc(Nc2cc(NC3CCC3)c3c(C(F)(F)F)c[nH]c3n2)c2c1OCCO2)N1CCOCC1 [Example 175, (8-((4-(cyclobutylamino)-3-(trifluoromethyl)-1H-pyrrolo[2,3-b]pyridin-6-yl)amino)-2,3-dihydrobenzo[b] [1,4]dioxin-5-yl)(morpholino) methanone 2,2,2-trifluoroacetate] | 301 to 1000 | 101 to 300
